The source of these data is article PMC11204923, “Marine Cytotoxin Santacruzamate A Derivatives as Potent HDAC1-3 Inhibitors and Their Synergistic Anti-Leukemia Effects with Venetoclax” (Marine Drugs, 2024).

One assay deals with T1, HDAC1 (Homo sapiens, UniProt Q13547).
T1 construct: purchased BPS Bioscience
Briefly: In vitro HDAC inhibition fluorescence assay, HDAC1. It is filed as biochemical. Here is the method:
(§1) All of the HDAC enzymes were purchased from BPS Bioscience. In vitro HDAC inhibition assays were conducted as previously described. In brief, 20 μL of recombinant HDAC enzyme solution (HDAC1-9, 11) was mixed with various concentrations of the tested compound (20 μL). […] After incubation at 37 °C for 2 h, the catalysis was stopped by the addition of 10 μL of developer containing 30 mg/mL trypsin and 6 μM trichostatin A (TSA). Then, 30 min later, the fluorescence intensity was measured using a microplate reader at excitation and emission wavelengths of 360 and 460 nm, respectively. The inhibition ratios were calculated from the fluorescence intensity readings of tested wells relative to those of control wells, and the IC50 curves and values were determined by GraphPad Prism 6.0, using the “log(inhibitor) vs. normalized response-variable slope” function.

A further assay has as its target T2, HDAC2 (Homo sapiens, UniProt Q92769).
T2 construct: purchased BPS Bioscience
Briefly: In vitro HDAC inhibition fluorescence assay, HDAC2. It is filed as biochemical. Here is the method: as §1

A further assay addresses T3, HDAC5 (Homo sapiens, UniProt Q9UQL6).
T3 construct: purchased BPS Bioscience
Briefly: In vitro HDAC inhibition fluorescence assay, HDAC5. It counts as biochemical. Here is the method: (§2) All of the HDAC enzymes were purchased from BPS Bioscience. In vitro HDAC inhibition assays were conducted as previously described. In brief, 20 μL of recombinant HDAC enzyme solution (HDAC1-9, 11) was mixed with various concentrations of the tested compound (20 μL). The mixture was incubated at 37 °C for 1 h, and then, 10 μL of fluorogenic substrate (Boc-Lys (acetyl)-AMC for HDAC1, 2, 3 and 6; Boc-Lys (trifluoroacetyl)AMC for HDAC4, 5, 7, 8, 9 and 11) was added to achieve a final concentration of 50 μM. After incubation at 37 °C for 2 h, the catalysis was stopped by the addition of 10 μL of developer containing 30 mg/mL trypsin and 6 μM trichostatin A (TSA). Then, 30 min later, the fluorescence intensity was measured using a microplate reader at excitation and emission wavelengths of 360 and 460 nm, respectively. The inhibition ratios were calculated from the fluorescence intensity readings of tested wells relative to those of control wells, and the IC50 curves and values were determined by GraphPad Prism 6.0, using the “log(inhibitor) vs. normalized response-variable slope” function.

The next assay concerns the target T4, HDAC6 (Homo sapiens, UniProt Q9UBN7).
T4 construct: purchased BPS Bioscience
T4 sequence (Q9UBN7 1-1215): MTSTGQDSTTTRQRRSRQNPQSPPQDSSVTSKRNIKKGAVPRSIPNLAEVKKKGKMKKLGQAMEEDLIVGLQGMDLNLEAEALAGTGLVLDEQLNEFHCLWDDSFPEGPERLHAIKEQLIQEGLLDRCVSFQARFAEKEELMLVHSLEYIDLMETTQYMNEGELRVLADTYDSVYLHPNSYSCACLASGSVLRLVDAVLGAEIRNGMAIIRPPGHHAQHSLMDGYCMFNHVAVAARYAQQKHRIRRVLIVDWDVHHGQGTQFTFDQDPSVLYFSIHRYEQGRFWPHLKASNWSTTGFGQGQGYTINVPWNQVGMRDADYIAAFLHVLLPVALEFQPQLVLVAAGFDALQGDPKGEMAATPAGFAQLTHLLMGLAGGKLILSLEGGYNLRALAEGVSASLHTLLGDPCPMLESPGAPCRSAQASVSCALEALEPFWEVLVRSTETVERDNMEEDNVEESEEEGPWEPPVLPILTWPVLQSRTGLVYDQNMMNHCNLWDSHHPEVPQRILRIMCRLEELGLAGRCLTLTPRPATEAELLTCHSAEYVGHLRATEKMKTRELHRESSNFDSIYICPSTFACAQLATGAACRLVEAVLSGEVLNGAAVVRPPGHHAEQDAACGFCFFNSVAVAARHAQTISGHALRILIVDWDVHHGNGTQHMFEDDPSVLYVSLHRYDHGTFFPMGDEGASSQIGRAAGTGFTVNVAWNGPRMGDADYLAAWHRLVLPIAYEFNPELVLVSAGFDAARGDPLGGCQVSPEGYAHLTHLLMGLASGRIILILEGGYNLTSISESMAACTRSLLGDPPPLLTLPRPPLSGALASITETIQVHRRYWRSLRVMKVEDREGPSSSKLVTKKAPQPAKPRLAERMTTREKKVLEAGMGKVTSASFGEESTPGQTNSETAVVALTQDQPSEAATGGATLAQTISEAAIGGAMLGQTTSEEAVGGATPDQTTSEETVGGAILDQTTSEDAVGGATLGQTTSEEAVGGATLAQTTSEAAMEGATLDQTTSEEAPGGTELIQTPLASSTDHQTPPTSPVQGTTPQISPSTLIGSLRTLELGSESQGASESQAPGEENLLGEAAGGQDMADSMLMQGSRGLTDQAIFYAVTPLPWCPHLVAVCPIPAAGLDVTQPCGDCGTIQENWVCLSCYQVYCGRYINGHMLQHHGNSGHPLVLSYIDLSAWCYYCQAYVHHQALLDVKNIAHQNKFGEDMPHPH
The assay is described as follows: In vitro HDAC inhibition fluorescence assay, HDAC6. It is filed as biochemical. Here is the method:
as §2

For a further assay, the system named is Kasumi-1 cells. Briefly: Cell viability assay (resazurin), Kasumi-1. It is filed as cell-based. As to conditions: Homo sapiens, Kasumi 1, 72 h; read-out: IC50 anti-proliferative activity Kasumi-1. Here is the method: The AML cell lines MV4-11, THP-1, KASUMI-1 and HL-60 were purchased from Procell Life Science & Technology Co., Ltd. (Wuhan, China). THP-1 and KASUMI-1 were cultured in RPMI-1640 complete medium containing 10% fetal bovine serum and 1% penicillin and streptomycin. MV4-11 was cultured in IMDM complete medium containing 10% fetal bovine serum and 1% penicillin and streptomycin. HL-60 was cultured in IMDM complete medium containing 20% fetal bovine serum and 1% penicillin and streptomycin. All cell lines were cultured in an incubator with humidity set at 95%, temperature at 37 °C and 5% CO2.
MV4-11, THP-1, KASUMI-1 and HL-60 cells were plated in 96-well transparent plates (10,000 to 15,000 cells/100 μL) and after incubation overnight, cells were treated with gradient-diluted inhibitors with several concentrations. After the cells were incubated with inhibitors for 72 h, 1 mg/mL of Resazurin (Sigma-Aldrich, Saint Louis, MO, USA) was added (working concentration was 0.1 mg/mL). After incubation at 37 °C for about 3 h, the fluorescence intensity of […] was measured at 560 nm/590 nm (excitation/emission) with a Spectra Max i3 Microplate Reader, and the cell viability was determined. The IC50 curve was drawn using GraphPad Prism 9.5 software.
(The colour change of resazurin is a common sign of viable cells or microbes.)

Each structure is given as a SMILES string. Where “and” joins values, the source holds several entries; their conditions need not be identical. Identical values can stand only once.

T1 sequence (Q13547 whole entry): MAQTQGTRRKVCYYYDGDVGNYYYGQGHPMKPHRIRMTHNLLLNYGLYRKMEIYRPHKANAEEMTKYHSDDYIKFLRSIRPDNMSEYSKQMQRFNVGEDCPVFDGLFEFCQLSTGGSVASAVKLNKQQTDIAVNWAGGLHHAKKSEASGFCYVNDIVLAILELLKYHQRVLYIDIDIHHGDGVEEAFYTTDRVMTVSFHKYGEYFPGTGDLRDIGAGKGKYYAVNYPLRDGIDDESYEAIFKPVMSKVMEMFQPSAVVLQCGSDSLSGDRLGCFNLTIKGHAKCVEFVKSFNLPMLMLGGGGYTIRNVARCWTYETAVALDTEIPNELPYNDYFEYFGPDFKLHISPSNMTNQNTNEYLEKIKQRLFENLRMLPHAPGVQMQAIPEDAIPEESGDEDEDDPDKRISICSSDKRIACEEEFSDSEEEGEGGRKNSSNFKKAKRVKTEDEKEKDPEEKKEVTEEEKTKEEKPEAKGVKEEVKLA
T3 sequence (Q9UQL6 whole entry): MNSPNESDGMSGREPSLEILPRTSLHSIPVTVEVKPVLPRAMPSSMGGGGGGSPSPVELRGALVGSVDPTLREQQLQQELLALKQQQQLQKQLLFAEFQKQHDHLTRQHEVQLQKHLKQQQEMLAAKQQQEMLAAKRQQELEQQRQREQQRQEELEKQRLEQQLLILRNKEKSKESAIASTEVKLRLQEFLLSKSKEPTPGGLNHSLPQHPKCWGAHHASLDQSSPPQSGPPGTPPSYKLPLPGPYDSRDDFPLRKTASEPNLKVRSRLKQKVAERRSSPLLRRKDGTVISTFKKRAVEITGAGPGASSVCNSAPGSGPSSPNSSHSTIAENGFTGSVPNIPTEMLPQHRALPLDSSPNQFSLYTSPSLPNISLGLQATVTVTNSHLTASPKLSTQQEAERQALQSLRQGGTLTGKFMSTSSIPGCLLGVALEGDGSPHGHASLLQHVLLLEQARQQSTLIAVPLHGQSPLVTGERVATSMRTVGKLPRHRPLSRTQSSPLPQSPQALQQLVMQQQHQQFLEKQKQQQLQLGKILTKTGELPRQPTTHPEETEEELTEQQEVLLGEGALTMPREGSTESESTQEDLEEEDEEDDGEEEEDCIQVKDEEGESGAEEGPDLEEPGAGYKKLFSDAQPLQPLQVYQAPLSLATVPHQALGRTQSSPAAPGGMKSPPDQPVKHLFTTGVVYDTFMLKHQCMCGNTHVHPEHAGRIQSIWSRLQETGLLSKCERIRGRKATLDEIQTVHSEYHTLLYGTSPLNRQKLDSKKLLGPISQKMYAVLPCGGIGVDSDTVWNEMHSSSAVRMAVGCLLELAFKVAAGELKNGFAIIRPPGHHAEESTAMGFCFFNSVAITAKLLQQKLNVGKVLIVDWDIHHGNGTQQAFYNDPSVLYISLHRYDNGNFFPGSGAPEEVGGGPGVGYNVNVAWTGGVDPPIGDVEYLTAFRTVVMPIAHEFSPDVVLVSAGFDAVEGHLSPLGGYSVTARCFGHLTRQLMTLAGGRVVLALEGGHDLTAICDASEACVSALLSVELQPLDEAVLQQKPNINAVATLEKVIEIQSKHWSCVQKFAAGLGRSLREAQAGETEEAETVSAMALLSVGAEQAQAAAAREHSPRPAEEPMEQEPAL
T2 sequence (Q92769 whole entry): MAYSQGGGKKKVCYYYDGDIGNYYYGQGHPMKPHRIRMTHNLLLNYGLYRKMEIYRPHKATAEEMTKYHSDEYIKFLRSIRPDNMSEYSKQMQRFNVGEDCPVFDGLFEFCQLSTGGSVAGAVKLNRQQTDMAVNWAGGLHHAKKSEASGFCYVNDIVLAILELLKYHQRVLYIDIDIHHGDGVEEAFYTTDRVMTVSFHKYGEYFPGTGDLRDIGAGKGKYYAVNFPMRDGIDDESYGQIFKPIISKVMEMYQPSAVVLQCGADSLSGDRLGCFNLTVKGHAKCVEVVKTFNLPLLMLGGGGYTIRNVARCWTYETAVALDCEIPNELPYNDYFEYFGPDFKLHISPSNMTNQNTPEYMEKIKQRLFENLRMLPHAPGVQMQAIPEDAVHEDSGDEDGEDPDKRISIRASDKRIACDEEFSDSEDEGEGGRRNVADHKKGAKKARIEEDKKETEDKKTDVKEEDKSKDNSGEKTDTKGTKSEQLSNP

One may read the IC50 as the point on the concentration scale where inhibition reaches its midpoint. In general, inhibition refers to the change of the read-out against control, counted positive when it falls. Take `CCCNNC(=O)C=Cc1ccc(CNCCc2ccccc2)cc1` [Compound 25c, 3-(4-((Phenethylamino)methyl)phenyl)-N′-propylacrylohydrazide]: the IC50 at HDAC1 is 28.1 nM and 28 nM; on HDAC2, 135 ± 13.3 nM; at HDAC5, over 10000 nM; at HDAC6 it was over 10000 nM; with Kasumi-1 cells, 338 ± 125 nM. For the same compound, the “Inhibition Rate of HDAC1 (%)” value at HDAC1 (10 nM, 0.01 µM) was determined as 31.1 ± 2.1%. The inhibition at 0.01 µM on HDAC1 (10 nM, read-out: Inhibition Rate of HDAC1 (%)) came to 31.1 ± 2.09%. For the same compound, at HDAC1 (100 nM, read-out: Inhibition Rate of HDAC1 (%)), the inhibition at 0.1 µM was 83.6 ± 0.4%.
